Consider seven compounds from ChEMBL document CHEMBL2040717, “Cytotoxic diterpenoids from Sapium insigne” (J Nat Prod, 2012).

Active and inactive are the calls of the source. The rule behind the calls is not given here.

For orientation: IC50 means the point on the concentration scale where inhibition reaches its midpoint. A lower IC50 goes with inhibition by little substance.

The subject of experiment [1] is HL-60. Briefly: Cytotoxicity against human HL60 cells at 100 uM by MTT assay. In general terms: Tetrazolium dyes change colour on reduction, which living cells bring about.
For experiment [2], the system named is A549. Briefly: Cytotoxicity against human A549 cells at 100 uM by SRB assay. Format: functional, cell-based.
The test system of experiment [3] is A549. Description: Cytotoxicity against human A549 cells by SRB assay. Format: functional, cell-based. (In general: Sulforhodamine B stains cellular protein and so reports cell mass.)
Experiment [4] has as its system HL-60. Description: Cytotoxicity against human HL60 cells by MTT assay.

For the compound `CC[C@H](C)CC[C@@H]1[C@H](C)CC[C@@H]2C(C)(C)CCC[C@@]12C`, the result in the experiment with HL-60 [1] and in the experiment with A549 [2] was inactive.
As to `C[C@H]1C[C@@]23CC[C@@H]4C(C)(C)CCC[C@@]4(C)[C@@H]2CC[C@@H]1C3`, the result in the experiment on HL-60 [1] and in the experiment on A549 [2] was inactive.
With `C[C@H]1C[C@]23CC[C@H]1C[C@H]2[C@]1(C)CCCC(C)(C)[C@H]1CC3`, the outcome in the experiment with HL-60 [1] and in the experiment on A549 [2] was inactive.
With `CCCCCCCC[C@@H](O)/C=C/C=C/C(=O)O[C@@]12C[C@@H](C)[C@@]3(O)[C@@H](C=C(CO)C[C@]4(O)C(=O)C(C)=C[C@@H]34)[C@@H]1[C@@]2(C)COC(C)=O` [SAPINSIGNOID A], the half-maximal inhibitory concentration (IC50) in the experiment with A549 [3] amounted to 1800 nM; with HL-60 [4], 3400 nM.
On to `CCCCCCCC[C@H](O)/C=C/C=C/C(=O)O[C@@]12C[C@@H](C)[C@@]3(O)[C@@H](C=C(CO)C[C@]4(O)C(=O)C(C)=C[C@@H]34)[C@@H]1[C@@]2(C)COC(C)=O` [SAPINSIGNOID B], for which the IC50 with A549 [3] was found to be 200 nM; in the experiment with HL-60 [4], 6500 nM.
As to `CCCCCCCCC(=O)/C=C/C=C/C(=O)O[C@@]12C[C@@H](C)[C@@]3(O)[C@@H](C=C(CO)C[C@]4(O)C(=O)C(C)=C[C@@H]34)[C@@H]1[C@@]2(C)COC(C)=O` [SAPINSIGNOID C], the figures for the IC50 in the experiment with A549 [3] and in the experiment on HL-60 [4] were 400 nM and 2700 nM, respectively.
Regarding `CCCCCCCC/C=C/C=C/CC(=O)O[C@@]12C[C@@H](C)[C@@]3(O)[C@@H](C=C(CO)C[C@]4(O)C(=O)C(C)=C[C@@H]34)[C@@H]1[C@@]2(C)COC(C)=O` [SAPINSIGNOID D], in the experiment on A549 [3], the half-maximal inhibitory concentration (IC50) was 900 nM.
